From PMC12471852, “Design and Synthesis of Marine-Inspired Itampolin A Derivatives to Overcome Chemoresistance in NSCLC via Cholesterol Homeostasis Modulation” (Marine Drugs, 2025)
Several values for one entry are separate records, joined by “and”; a condition that tells them apart may be missing. Identical values can stand only once. Like-named read-outs stand apart in the source and are kept apart here.

Tests used:
p38α [1] = target: T1, p38α (Homo sapiens, UniProt Q16539); design: method as in PMID 30642059; conditions: compounds 6a–6o synthesized in previous work; read-out: p38α MAP kinase inhibitory activity IC50; cited from earlier work
T1 sequence (Q16539 whole entry): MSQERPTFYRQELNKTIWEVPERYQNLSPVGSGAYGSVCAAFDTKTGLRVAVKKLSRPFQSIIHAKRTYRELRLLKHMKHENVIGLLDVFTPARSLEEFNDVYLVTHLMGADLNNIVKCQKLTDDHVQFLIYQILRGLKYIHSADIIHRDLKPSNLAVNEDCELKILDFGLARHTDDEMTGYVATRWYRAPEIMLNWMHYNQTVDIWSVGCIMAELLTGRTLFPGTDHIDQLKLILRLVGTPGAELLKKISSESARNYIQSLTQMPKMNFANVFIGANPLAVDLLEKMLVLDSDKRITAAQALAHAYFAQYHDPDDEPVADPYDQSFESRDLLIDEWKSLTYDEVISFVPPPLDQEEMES

p38α [2] = target: T1, p38α; test: ADP-Glo Kinase Assay, p38α MAP kinase inhibition; format: biochemical; conditions: read-out: p38α MAP kinase inhibitory activity IC50
Description: The capacity of brominated tyrosine derivatives to inhibit p38α activity was evaluated using the ADP-Glo Kinase Assay.

PC9/GR cells = test: MTT anti-proliferation assay, gefitinib-resistant PC9/GR cells; format: cell-based, human; conditions: for MTT, PC9/GR, value relative to control (=100), single replicate: 24 h
Description: (§1) To evaluate the tumor-selective activity of compounds 4l and 4m, dose–response studies were performed on wild-type PC9 and gefitinib-resistant PC9/GR cell lines. […] Subtoxic concentrations of 25, 50, and 75 μM were employed to ensure specificity for drug-resistant phenotypes while preserving normal cell viability. […] To assess long-term proliferative potential, clonogenic survival assays were performed. Cells pretreated with 4l (24 h) were trypsinized to generate single-cell suspensions, plated at 300 cells/well, and cultured for 14 days. […] Cell migration ability was evaluated by the scratch healing assay. […] To evaluate the pro-apoptotic efficacy of 4l, we employed a dual-staining approach using Annexin V-FITC and propidium iodide (PI) for quadrant-specific quantification of programmed cell death. Annexin V binds externalized phosphatidylserine (PS), a hallmark of early apoptosis, while PI permeabilization discriminates late-stage apoptotic or necrotic cells.
(§2) The human normal lung epithelial cell line BEAS-2B, non-small cell lung carcinoma (NSCLC) cell line PC9, and gefitinib-resistant PC9/GR cell line were purchased from Procell Life Science & Technology Co., Ltd. (Wuhan, China). All cell lines were maintained in RPMI-1640 medium (BI, Beit Haemek, Mateh Asher, Israel) supplemented with 10% fetal bovine serum (FBS, Gibco, Thermo Fisher Scientific, Waltham, MA, USA) and 1% penicillin–streptomycin–amphotericin B sterile solution (Solarbio, Beijing, China). Cells were cultured at 37 °C in a humidified incubator with 5% CO2. For subculturing, cells were harvested using trypsin-EDTA solution upon reaching 70–80% confluence and resuspended at appropriate densities for subsequent experiments.
(§3) MTT: Cells (5 × 10^4/mL) were treated with 4l (25–100 μM, 24–48 h), incubated with MTT (10 μL/well, 4–6 h), and dissolved in DMSO. Absorbance (490 nm) was measured to assess viability.

PC9 cells = test: MTT anti-proliferation assay, PC9 cells; format: cell-based, human; conditions: for MTT, PC9, value relative to control (=100), single replicate: 24 h
Description: as §1, §2, §3

For `COc1c(Br)cc(CCNC(=O)Nc2ccc(OCCCN3CCOCC3)cc2)cc1Br` [6g], the IC50 (p38α [1]) is listed as 11.7 ± 3 nM.

`COCCOc1ccc(NC(=O)NCCc2cc(Br)c(O)c(Br)c2)cc1` [4o, 1-(3,5-dibromo-4-hydroxyphenethyl)-3-(4-(2-methoxyethoxy)phenyl)urea] showed an IC50 (p38α [2]) of 11.3 ± 26.2 nM.

Compound `CCCCOc1ccc(NC(=O)NCCc2cc(Br)c(O)c(Br)c2)cc1` [4d, 1-(4-butoxyphenyl)-3-(3,5-dibromo-4-hydroxyphenethyl)urea] has an IC50 (p38α [2]) of 914 ± 44.3 nM.

Work on `CCOc1ccc(NC(=O)NCCc2cc(Br)c(O)c(Br)c2)cc1` [4b, 1-(3,5-dibromo-4-hydroxyphenethyl)-3-(4-ethoxyphenyl)urea] yielded an IC50 (p38α [2]) of 170 ± 12.1 nM.

With `COc1ccc(NC(=O)NCCc2cc(Br)c(O)c(Br)c2)cc1` [4a, 1-(3,5-dibromo-4-hydroxyphenethyl)-3-(4-methoxyphenyl)urea] the IC50 (p38α [2]) was 265 ± 20.7 nM.

Compound `O=C(NCCc1cc(Br)c(O)c(Br)c1)Nc1ccc(Br)cc1` [4k, 1-(4-bromophenyl)-3-(3,5-dibromo-4-hydroxyphenethyl)urea] has an IC50 (p38α [2]) of 51.1 ± 9.5 nM.

Compound `O=C(NCCc1cc(Br)c(O)c(Br)c1)Nc1cccc(Cl)c1` [4i, 1-(3-chlorophenyl)-3-(3,5-dibromo-4-hydroxyphenethyl)urea] has an IC50 (p38α [2]) of 13.9 ± 2.7 nM.

`CCCOc1ccc(NC(=O)NCCc2cc(Br)c(O)c(Br)c2)cc1` [4c, 1-(3,5-dibromo-4-hydroxyphenethyl)-3-(4-propoxyphenyl)urea] gave an IC50 (p38α [2]) of 297 ± 17.5 nM.

Compound `CC(C)Oc1ccc(NC(=O)NCCc2cc(Br)c(O)c(Br)c2)cc1` [4h, 1-(3,5-dibromo-4-hydroxyphenethyl)-3-(4-isopropoxyphenyl)urea] has an IC50 (p38α [2]) of 850 ± 32.7 nM.

Work on `O=C(NCCc1cc(Br)c(O)c(Br)c1)Nc1ccccc1Cl` [4j, 1-(2-chlorophenyl)-3-(3,5-dibromo-4-hydroxyphenethyl)urea] yielded an IC50 (p38α [2]) of 74.4 ± 13 nM.

`Cc1ccc(NC(=O)NCCc2cc(Br)c(O)c(Br)c2)cc1` [4n, 1-(3,5-dibromo-4-hydroxyphenethyl)-3-(p-tolyl)urea] showed an IC50 (p38α [2]) of 38.7 ± 8.1 nM.

In the case of `O=C(NCCc1cc(Br)c(O)c(Br)c1)Nc1ccc(OCCCN2CCOCC2)cc1` [4g, 1-(3,5-dibromo-4-hydroxyphenethyl)-3-(4-(3-morpholinopropoxy)phenyl)urea], the IC50 (p38α [2]) is reported as 167 ± 13.6 nM.

With `O=C(NCCc1cc(Br)c(O)c(Br)c1)Nc1ccccc1F` [4m, 1-(3,5-dibromo-4-hydroxyphenethyl)-3-(2-fluorophenyl)urea] the “MTT, PC9/GR, value relative to control (=100), single replicate” value (“MTT, PC9/GR, value relative to control” below) (PC9/GR cells; 25 (μM)) was 62.45 and 66.61 and 79.63 and 68.61, the “MTT, PC9/GR, value relative to control” value (PC9/GR cells; 50 (μM)) was 61.78 and 67.43 and 60.72 and 69.73 and the “MTT, PC9/GR, value relative to control” value (PC9/GR cells; 75 (μM)) was 48.89 and 53.34 and 39.63 and 40.04. The “MTT, PC9/GR, value relative to control” value (PC9/GR cells; 100 (μM)) was 37.64 and 39.62 and 40.69 and 41.33, the IC50 (PC9/GR cells; Homo sapiens, gefitinib-resistant PC9/GR, MTT, 24-hour treatment, 0–100 μM, read-out: IC50, growth inhibition) was 39000 nM and the “selectivity towards cells with the drug-resistant phenotype” value (PC9/GR cells; PC9/GR versus PC9) was “did not demonstrate significant selectivity”. The “MTT, PC9, value relative to control (=100), single replicate” value (from here on “MTT, PC9, value relative to control”) (PC9 cells; 25 (μM)) was 72.71 and 78.44 and 89.41 and 73.662, the “MTT, PC9, value relative to control” value (PC9 cells; 50 (μM)) was 73.32 and 75.35 and 64.23 and 80.16 and the “MTT, PC9, value relative to control” value (PC9 cells; 75 (μM)) was 63.32 and 73.36 and 69.44 and 65.21. The “MTT, PC9, value relative to control” value (PC9 cells; 100 (μM)) was 61.89 and 69.88 and 70.31 and 63.67, the IC50 (PC9 cells; Homo sapiens, PC-9, wild-type PC9, MTT, 24-hour treatment, 0–100 μM, read-out: IC50, growth inhibition) was 55500 nM and the IC50 (p38α [2]) was 10.2 ± 2.3 nM.
